{"source": "paper PMC5218480", "about": "(PLoS ONE, 2017)", "tested_on": "MV-4-11 cells", "assay": "Gene expression microarray analysis (Affymetrix PrimeView) and GSEA", "format": "cell-based, human", "design": "RFU PODN (11730768_x_at) / Fold change /veh PODN (11730768_x_at) / RFU LINC00158 (11744669_a_at) / Fold change /veh LINC00158 (11744669_a_at) / RFU DUSP10 (11751237_a_at) / Fold change /veh DUSP10 (11751237_a_at) / RFU ID3 (11757404_x_at) / Fold change /veh ID3 (11757404_x_at) / RFU PLEKHG5 (11737974_s_at) / Fold change /veh PLEKHG5 (11737974_s_at) / RFU LRRC4B (11730491_at) / Fold change /veh LRRC4B (11730491_at) / RFU GIMAP4 (11747438_a_at) / Fold change /veh GIMAP4 (11747438_a_at) / RFU KRT8 (11758183_x_at) / Fold change /veh KRT8 (11758183_x_at) / RFU CNN1 (11734310_a_at) / Fold change /veh CNN1 (11734310_a_at) / RFU VPS37D (11726825_at) / Fold change /veh VPS37D (11726825_at) / RFU C10orf10 (11716522_x_at) / Fold change /veh C10orf10 (11716522_x_at) / RFU KIR2DL2 /// KIR2DL4 /// KIR2DL5A /// KIR2DL5B /// KIR2DS1 /// KIR2DS2 /// KIR2DS3 /// KIR2DS4 /// KIR3DL3 /// KIR3DL3 /// KIR3DS1 (11738374_at) / Fold change /veh KIR2DL2 /// KIR2DL4 /// KIR2DL5A /// KIR2DL5B /// KIR2DS1 /// KIR2DS2 /// KIR2DS3 /// KIR2DS4 /// KIR3DL3 /// KIR3DL3 /// KIR3DS1 (11738374_at) / RFU C1QL1 (11718748_at) / Fold change /veh C1QL1 (11718748_at) / RFU TMPRSS4 (11747572_a_at) / Fold change /veh TMPRSS4 (11747572_a_at) / RFU HAMP (11756126_x_at) / Fold change /veh HAMP (11756126_x_at) / RFU RNFT2 (11725882_a_at) / Fold change /veh RNFT2 (11725882_a_at) / RFU NR4A2 (11747474_a_at) / Fold change /veh NR4A2 (11747474_a_at) / RFU ABCC12 (11746883_a_at) / Fold change /veh ABCC12 (11746883_a_at) / RFU TMEM136 (11760407_x_at) / Fold change /veh TMEM136 (11760407_x_at) / RFU CLDN22 /// WWC2 (11732394_at) / Fold change /veh CLDN22 /// WWC2 (11732394_at) / RFU HLA-DPB1 (11760878_x_at) / Fold change /veh HLA-DPB1 (11760878_x_at) / RFU SPINT1 (11716480_a_at) / Fold change /veh SPINT1 (11716480_a_at) / RFU GAP43 (11754022_s_at) / Fold change /veh GAP43 (11754022_s_at) / RFU A4GNT (11735810_at) / Fold change /veh A4GNT (11735810_at) / RFU PRB3 (11715151_x_at) / Fold change /veh PRB3 (11715151_x_at) / RFU TUBB4B (11761932_at) / Fold change /veh TUBB4B (11761932_at) / RFU CAPN14 (11732068_a_at) / Fold change /veh CAPN14 (11732068_a_at) / RFU TMCC2 (11721928_a_at) / Fold change /veh TMCC2 (11721928_a_at) / RFU IRGQ (11745062_a_at) / Fold change /veh IRGQ (11745062_a_at) / RFU FAM174B (11720279_a_at) / Fold change /veh FAM174B (11720279_a_at) / RFU TMPRSS4 (11748680_a_at) / Fold change /veh TMPRSS4 (11748680_a_at) / RFU FAM212B (11763350_a_at) / Fold change /veh FAM212B (11763350_a_at) / RFU PLEKHG5 (11743358_a_at) / Fold change /veh PLEKHG5 (11743358_a_at) / RFU ZSCAN30 (11745921_a_at) / Fold change /veh ZSCAN30 (11745921_a_at) / RFU CMKLR1 (11741424_a_at) / Fold change /veh CMKLR1 (11741424_a_at) / RFU LOC101060620 /// MAPK8IP1 (11723275_at) / Fold change /veh LOC101060620 /// MAPK8IP1 (11723275_at) / RFU SPTSSB (11747773_x_at) / Fold change /veh SPTSSB (11747773_x_at) / RFU PRSS12 (11739890_at) / Fold change /veh PRSS12 (11739890_at) / RFU BIN1 (11741810_x_at) / Fold change /veh BIN1 (11741810_x_at) / RFU WNT11 (11732464_a_at) / Fold change /veh WNT11 (11732464_a_at) / RFU C10orf10 (11716521_a_at) / Fold change /veh C10orf10 (11716521_a_at) / RFU C5orf56 (11738089_at) / Fold change /veh C5orf56 (11738089_at) / RFU CYB561 (11721691_x_at) / Fold change /veh CYB561 (11721691_x_at) / RFU ANKRD19P (11752326_a_at) / Fold change /veh ANKRD19P (11752326_a_at) / RFU OR2T12 /// OR2T33 /// OR2T8 (11738714_s_at) / Fold change /veh OR2T12 /// OR2T33 /// OR2T8 (11738714_s_at) / RFU VCAN (11748164_a_at) / Fold change /veh VCAN (11748164_a_at) / RFU JSRP1 (11732532_at) / Fold change /veh JSRP1 (11732532_at) / RFU KRTAP10-11 (11738290_x_at) / Fold change /veh KRTAP10-11 (11738290_x_at) / RFU MYO3A (11730013_a_at) / Fold change /veh MYO3A (11730013_a_at) / RFU EBF3 (11725865_a_at) / Fold change /veh EBF3 (11725865_a_at) / RFU CAMK2N1 (11719241_x_at) / Fold change /veh CAMK2N1 (11719241_x_at) / RFU C5orf56 (11738088_a_at) / Fold change /veh C5orf56 (11738088_a_at) / RFU OLFML3 (11715873_a_at) / Fold change /veh OLFML3 (11715873_a_at) / RFU LOC100653217 /// NTM (11731650_a_at) / Fold change /veh LOC100653217 /// NTM (11731650_a_at) / RFU MAPK11 (11762145_a_at) / Fold change /veh MAPK11 (11762145_a_at) / RFU FIZ1 (11724087_x_at) / Fold change /veh FIZ1 (11724087_x_at) / RFU OASL (11726364_x_at) / Fold change /veh OASL (11726364_x_at) / RFU SOX15 (11748057_x_at) / Fold change /veh SOX15 (11748057_x_at) / RFU CD79A (11719716_a_at) / Fold change /veh CD79A (11719716_a_at) / RFU HIST1H1D (11736915_at) / Fold change /veh HIST1H1D (11736915_at) / RFU CASKIN2 (11723855_a_at) / Fold change /veh CASKIN2 (11723855_a_at) / RFU LOC730098 (11760151_x_at) / Fold change /veh LOC730098 (11760151_x_at) / RFU OR4N2 (11742367_at) / Fold change /veh OR4N2 (11742367_at) / RFU PRRT2 (11749266_a_at) / Fold change /veh PRRT2 (11749266_a_at) / RFU SNX32 (11753110_a_at) / Fold change /veh SNX32 (11753110_a_at) / RFU CDHR5 (11726645_a_at) / Fold change /veh CDHR5 (11726645_a_at) / RFU RCAN1 (11760418_a_at) / Fold change /veh RCAN1 (11760418_a_at) / RFU FAM167A (11723789_a_at) / Fold change /veh FAM167A (11723789_a_at) / RFU FAM26E (11764081_at) / Fold change /veh FAM26E (11764081_at) / RFU ISYNA1 (11749810_s_at) / Fold change /veh ISYNA1 (11749810_s_at) / RFU ACY1 (11761880_at) / Fold change /veh ACY1 (11761880_at) / RFU 11764098_at / Fold change /veh 11764098_at / RFU SAMD14 (11745864_x_at) / Fold change /veh SAMD14 (11745864_x_at) / RFU NPB (11741838_a_at) / Fold change /veh NPB (11741838_a_at) / RFU TMPRSS6 (11731388_a_at) / Fold change /veh TMPRSS6 (11731388_a_at) / RFU KRTAP10-2 (11738614_at) / Fold change /veh KRTAP10-2 (11738614_at) / RFU ARHGAP8 /// PRR5-ARHGAP8 (11727945_x_at) / Fold change /veh ARHGAP8 /// PRR5-ARHGAP8 (11727945_x_at) / RFU KRTAP5-7 /// NADSYN1 (11734609_at) / Fold change /veh KRTAP5-7 /// NADSYN1 (11734609_at) / RFU RASL12 (11751679_a_at) / Fold change /veh RASL12 (11751679_a_at) / RFU CDKN2B (11736163_a_at) / Fold change /veh CDKN2B (11736163_a_at) / RFU PRF1 (11729649_at) / Fold change /veh PRF1 (11729649_at) / RFU, ZNF638 /// ZNF638-IT1 / Fold change vs veh, ZNF638 /// ZNF638-IT1 / RFU, PANK3 / Fold change vs veh, PANK3 / RFU, SH3YL1 / Fold change vs veh, SH3YL1 / RFU, ZEB2 / Fold change vs veh, ZEB2 / RFU, NRIP1 / Fold change vs veh, NRIP1 / RFU, PTTG1IP / Fold change vs veh, PTTG1IP / RFU, CAPN2 / Fold change vs veh, CAPN2 / RFU, MED14 / Fold change vs veh, MED14 / RFU, SNORA58 / Fold change vs veh, SNORA58 / RFU, C1orf63 / Fold change vs veh, C1orf63 / RFU, LRRFIP1 / Fold change vs veh, LRRFIP1 / RFU, NDUFAF7 / Fold change vs veh, NDUFAF7 / RFU, SLC12A2 / Fold change vs veh, SLC12A2 / RFU, IBTK / Fold change vs veh, IBTK / RFU, ESF1 / Fold change vs veh, ESF1 / Fold change vs veh, TMEM50B / RFU, TAOK1 / Fold change vs veh, TAOK1 / RFU, ACBD3 / Fold change vs veh, ACBD3 / RFU, TMA16 / Fold change vs veh, TMA16 / RFU, RWDD3 / Fold change vs veh, RWDD3 / RFU, BCAT1 / Fold change vs veh, BCAT1 / RFU, EDEM3 / Fold change vs veh, EDEM3 / RFU, TMEM33 / Fold change vs veh, TMEM33 / RFU, WDR75 / Fold change vs veh, WDR75 / RFU, AHCTF1 / Fold change vs veh, AHCTF1 / RFU, TFRC / Fold change vs veh, TFRC / RFU, ZDHHC17 / Fold change vs veh, ZDHHC17 / RFU, NOM1 / Fold change vs veh, NOM1 / RFU, ARL8B / Fold change vs veh, ARL8B / RFU, ZBTB11 / Fold change vs veh, ZBTB11 / RFU, TAMM41 / Fold change vs veh, TAMM41 / RFU, KIAA1704 /// LOC100996395 / Fold change vs veh, KIAA1704 /// LOC100996395 / RFU, ING1 / Fold change vs veh, ING1 / RFU, TRMT61B / Fold change vs veh, TRMT61B / RFU, FUBP3 / Fold change vs veh, FUBP3 / RFU, TP53 / Fold change vs veh, TP53 / RFU, TNKS2 / Fold change vs veh, TNKS2 / RFU, ZFP14 / Fold change vs veh, ZFP14 / RFU, ACTR2 / Fold change vs veh, ACTR2 / RFU, PPP3R1 / Fold change vs veh, PPP3R1 / RFU, PIK3R1 / Fold change vs veh, PIK3R1 / RFU, HNRNPA1 / Fold change vs veh, HNRNPA1 / RFU, RNF170 / Fold change vs veh, RNF170 / RFU, ZNF28 / Fold change vs veh, ZNF28 / RFU, RNGTT / Fold change vs veh, RNGTT / RFU, OGT / Fold change vs veh, OGT / RFU, BRD1 / Fold change vs veh, BRD1 / RFU, MARS / Fold change vs veh, MARS / RFU, ZNF655 / Fold change vs veh, ZNF655 / RFU, FAHD1 / Fold change vs veh, FAHD1 / RFU, BDP1 / Fold change vs veh, BDP1 / RFU, LRRCC1 / Fold change vs veh, LRRCC1 / RFU, ARID1A / Fold change vs veh, ARID1A / RFU, ZNF146 / Fold change vs veh, ZNF146 / RFU, ZNF330 / Fold change vs veh, ZNF330 / RFU, GPN3 / Fold change vs veh, GPN3 / RFU, C9orf123 / Fold change vs veh, C9orf123 / RFU, N4BP2L2 / Fold change vs veh, N4BP2L2 / RFU, ARFIP1 / Fold change vs veh, ARFIP1 / RFU, FAM179B / Fold change vs veh, FAM179B / RFU, BCL10 / Fold change vs veh, BCL10 / RFU, UHRF1BP1L / Fold change vs veh, UHRF1BP1L / RFU, BET1 / Fold change vs veh, BET1 / RFU, CNOT2 / Fold change vs veh, CNOT2 / RFU, ZNF268 / Fold change vs veh, ZNF268 / Fold change vs veh, ZNF507 / RFU, DGCR2 / Fold change vs veh, DGCR2 / RFU, WDSUB1 / Fold change vs veh, WDSUB1 / Fold change vs veh, HSP90B1 /// MIR3652 / RFU, ADSS / Fold change vs veh, ADSS / RFU, GK / Fold change vs veh, GK / RFU, ZNF148 / Fold change vs veh, ZNF148 / RFU, TAF9 / Fold change vs veh, TAF9 / RFU, SLC1A5 / Fold change vs veh, SLC1A5 / RFU, SLMO2 / Fold change vs veh, SLMO2 / RFU, ABCC4 / Fold change vs veh, ABCC4 / RFU, LOC101060439 /// RAP1B / Fold change vs veh, LOC101060439 /// RAP1B / RFU, RFX7 / Fold change vs veh, RFX7 / RFU, GTPBP10 / Fold change vs veh, GTPBP10 / RFU, CNEP1R1 / Fold change vs veh, CNEP1R1 / RFU, BIVM-ERCC5 /// ERCC5 / Fold change vs veh, BIVM-ERCC5 /// ERCC5 / RFU, ILF3 / Fold change vs veh, ILF3 / RFU 11762660_at / Fold change /veh 11762660_at / RFU VCAN (11757783_s_at) / Fold change /veh VCAN (11757783_s_at) / RFU DDX43 (11728927_at) / Fold change /veh DDX43 (11728927_at) / RFU KRT8 (11758188_x_at) / Fold change /veh KRT8 (11758188_x_at) / RFU NKD1 (11759106_at) / Fold change /veh NKD1 (11759106_at) / RFU SRD5A1 (11742802_a_at) / Fold change /veh SRD5A1 (11742802_a_at) / RFU TPSAB1 /// TPSB2 (11721975_s_at) / Fold change /veh TPSAB1 /// TPSB2 (11721975_s_at) / RFU GSTM3 (11746129_a_at) / Fold change /veh GSTM3 (11746129_a_at) / RFU IL23R (11737362_x_at) / Fold change /veh IL23R (11737362_x_at) / RFU TMEM51 (11727254_a_at) / Fold change /veh TMEM51 (11727254_a_at) / RFU PIWIL2 (11732686_x_at) / Fold change /veh PIWIL2 (11732686_x_at) / RFU ORM1 (11744905_x_at) / Fold change /veh ORM1 (11744905_x_at) / RFU CCDC152 (11743942_at) / Fold change /veh CCDC152 (11743942_at) / RFU ECM1 (11717891_a_at) / Fold change /veh ECM1 (11717891_a_at) / RFU IL23R (11748794_a_at) / Fold change /veh IL23R (11748794_a_at) / RFU TNFAIP8L3 (11732012_x_at) / Fold change /veh TNFAIP8L3 (11732012_x_at) / RFU MBOAT4 (11741988_at) / Fold change /veh MBOAT4 (11741988_at) / RFU 11764193_at / Fold change /veh 11764193_at / RFU TMEM53 (11763286_at) / Fold change /veh TMEM53 (11763286_at) / RFU MAGEB2 (11727129_at) / Fold change /veh MAGEB2 (11727129_at) / RFU TMEM200A (11744735_a_at) / Fold change /veh TMEM200A (11744735_a_at) / RFU CCDC152 (11751479_a_at) / Fold change /veh CCDC152 (11751479_a_at) / RFU FAM211A (11726209_a_at) / Fold change /veh FAM211A (11726209_a_at) / RFU RGS16 (11746705_a_at) / Fold change /veh RGS16 (11746705_a_at) / RFU VCAN (11755009_s_at) / Fold change /veh VCAN (11755009_s_at) / RFU RHOB (11743442_s_at) / Fold change /veh RHOB (11743442_s_at) / RFU RGS16 (11720943_a_at) / Fold change /veh RGS16 (11720943_a_at) / RFU RGS16 (11720944_at) / Fold change /veh RGS16 (11720944_at) / RFU, VPS4B / Fold change vs veh, VPS4B / RFU, CREB1 / Fold change vs veh, CREB1 / RFU, DNAJC13 / Fold change vs veh, DNAJC13 / RFU, GNAQ / Fold change vs veh, GNAQ / RFU, CDK5R1 / Fold change vs veh, CDK5R1 / RFU, ZRANB3 / Fold change vs veh, ZRANB3 / RFU, CUL4A / Fold change vs veh, CUL4A / RFU, CCNY / Fold change vs veh, CCNY / RFU, UFL1 / Fold change vs veh, UFL1 / RFU, COG3 / Fold change vs veh, COG3 / RFU, DIAPH2 / Fold change vs veh, DIAPH2 / RFU, SKA2 / Fold change vs veh, SKA2 / RFU, AFF3 / Fold change vs veh, AFF3 / RFU, LMF1 / Fold change vs veh, LMF1 / RFU, IPO11 / Fold change vs veh, IPO11 / RFU, DFFB / Fold change vs veh, DFFB / RFU, FOXP1 / Fold change vs veh, FOXP1 / RFU, CARD8 / Fold change vs veh, CARD8 / RFU, STRN3 / Fold change vs veh, STRN3 / RFU, ADK / Fold change vs veh, ADK / RFU, RASSF2 / Fold change vs veh, RASSF2 / RFU, WIPF1 / Fold change vs veh, WIPF1 / RFU, LARP1B / Fold change vs veh, LARP1B / RFU, RASA1 / Fold change vs veh, RASA1 / RFU, RB1 / Fold change vs veh, RB1 / RFU, PPFIA1 / Fold change vs veh, PPFIA1 / RFU, MAT2A / Fold change vs veh, MAT2A / RFU, CCT5 / Fold change vs veh, CCT5 / RFU, WDR92 / Fold change vs veh, WDR92 / RFU, CUX1 / Fold change vs veh, CUX1 / RFU, TTC7A / Fold change vs veh, TTC7A / RFU, TMEM135 / Fold change vs veh, TMEM135 / RFU, DEPTOR / Fold change vs veh, DEPTOR / RFU, CPM / Fold change vs veh, CPM / RFU, DNAJB6 / Fold change vs veh, DNAJB6 / RFU, CACNA2D3 / Fold change vs veh, CACNA2D3 / RFU, DTX4 / Fold change vs veh, DTX4 / RFU, TFCP2 / Fold change vs veh, TFCP2 / RFU, GMCL1 /// GMCL1P1 / Fold change vs veh, GMCL1 /// GMCL1P1 / RFU, AEBP2 / Fold change vs veh, AEBP2 / RFU, SNHG1 /// SNORD22 /// SNORD25 /// SNORD26 /// SNORD27 /// SNORD28 /// SNORD29 /// SNORD31 / Fold change vs veh, SNHG1 /// SNORD22 /// SNORD25 /// SNORD26 /// SNORD27 /// SNORD28 /// SNORD29 /// SNORD31 / Fold change (Aza/veh), C12orf56 (ProbeSet 11735607_a_at) / Fold change (ACY-1035/veh), C12orf56 (ProbeSet 11735607_a_at) / Fold change (Aza/veh), FGFR1OP (ProbeSet 11751329_s_at) / Fold change (ACY-1035/veh), FGFR1OP (ProbeSet 11751329_s_at) / Fold change (Aza/veh), VPS36 (ProbeSet 11739960_a_at) / Fold change (ACY-1035/veh), VPS36 (ProbeSet 11739960_a_at) / RFU SYPL1 (11715823_x_at) / Fold change /veh SYPL1 (11715823_x_at) / RFU IGFBP7 (11715501_s_at) / Fold change /veh IGFBP7 (11715501_s_at) / RFU REEP3 (11722064_at) / Fold change /veh REEP3 (11722064_at) / RFU IGLL1 (11728026_x_at) / Fold change /veh IGLL1 (11728026_x_at): dose or concentration left out as unconfirmed", "conditions": "ProbeSet 11723475_a_at; LIST B", "data": [{"compound": "Nc1ncn([C@@H]2O[C@H](CO)[C@@H](O)[C@H]2O)c(=O)n1", "note": "[azacitidine]", "values": [{"measurement": "Fold change vs veh, TRMT61B", "value": 0.91}]}]}
